Measured values reported in patent US6710049B2, “Azole compounds as anti-fungal agents” (Ranbaxy Laboratories Limited, priority 2000, dated 2004).

How the values were obtained:
Penicilliuim 2306 = assay: MIC determination (NCCLS broth method); type: cell-based, Penicillium
From the text: (§1) The in-vitro evaluation of the antifungal activity of the compounds can be performed by determining the minimum inhibitory concentration (MIC) as shown in Table 1 which is the concentration of the test compound in Rosewell Park Memorial Institute (RPMI) 1640 liquid medium buffered with 3-(Morpholino)propanesulphonic acid (MOPS) to pH 7, at which there is significant inhibition of the particular fungi. In practice the National Committee for Clinical Laboratory Standard (NCCLS) M27A document for Candida and Cryptococcus and M38P for Aspergillus was used to determine the MIC against yeast and filamentous fungi with suitable modifications for dermatophytes to other filamentous fungi. Three quality control strains were included each time the MIC were determined and readings recorded only when the Quality Control results fell into the acceptable range. After MIC results had been recorded, 100 μl from each of the well showing no growth was spread over Sabouraud Dextrose Agar (SDA) to determine the minimum fungicidal concentration (MFC) as shown in Table 2.

Alternaria 1051 = assay: MFC determination (subculture on Sabouraud Dextrose Agar); type: cell-based
From the text: as §1

A niger E5 - 1047 = assay: as above; type: cell-based
From the text: as §1

Penicillium 2548 = assay: as above; type: cell-based
From the text: as §1

C krusei 6258 = assay: as above; type: cell-based
From the text: as §1

A flavus E4 - 1042 = assay: as above; type: cell-based
From the text: as §1

C parapsilosis 22019 = assay: as above; type: cell-based
From the text: as §1

A niger P1 - 1046 = assay: as above; type: cell-based
From the text: as §1

A flavus E3 - 1044 = assay: as above; type: cell-based
From the text: as §1

A flavus P2 - 1045 = assay: as above; type: cell-based
From the text: as §1

A flavus P3 - 1041 = assay: as above; type: cell-based
From the text: as §1

Penicillium 1641 = assay: as above; type: cell-based
From the text: as §1

Penicillium 2306 = assay: as above; type: cell-based
From the text: as §1

Mucor (Ceylon) = assay: as above; type: cell-based
From the text: as §1

Rhizopus 1052 = assay: as above; type: cell-based
From the text: as §1

Rhizopus (Ceylon) = assay: as above; type: cell-based
From the text: as §1

Penicillium 31620 = assay: as above; type: cell-based
From the text: as §1

Penicillium 191 = assay: as above; type: cell-based
From the text: as §1

Penicillium I - 1049 = assay: as above; type: cell-based
From the text: as §1

Penicillium H - 1048 = assay: as above; type: cell-based
From the text: as §1

A fumigatus J - 1032 = assay: MIC determination (NCCLS broth method); type: cell-based, Aspergillus fumigatus
Method in brief: (§2)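 Broth microdilution per NCCLS M27A (yeasts) and M38P (Aspergillus), modified for dermatophytes and other filamentous fungi; RPMI 1640 buffered with MOPS to pH 7. MIC is the lowest concentration giving significant growth inhibition. Wells showing no growth are subcultured onto Sabouraud Dextrose Agar to give the MFC.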

A fumigatus I - 1011 = assay: MIC determination (NCCLS broth method); type: cell-based, Aspergillus fumigatus
Method in brief: as §2

A fumigatus L - 1034 = assay: MIC determination (NCCLS broth method); type: cell-based, Aspergillus fumigatus
Method in brief: as §2

A fumigatus PGI - 1023 = assay: MIC determination (NCCLS broth method); type: cell-based, Aspergillus fumigatus
Method in brief: as §2

A fumigatus 1008 [1] = assay: MIC determination (NCCLS broth method); type: cell-based, Aspergillus fumigatus
Method in brief: as §2

A fumigatus II - 1012 = assay: MIC determination (NCCLS broth method); type: cell-based, Aspergillus fumigatus
Method in brief: as §2

A fumigatus K - 1033 = assay: MIC determination (NCCLS broth method); type: cell-based, Aspergillus fumigatus
Method in brief: as §2

A fumigatus SI-1 - 1019 = assay: MFC determination (subculture on Sabouraud Dextrose Agar); type: cell-based, Aspergillus fumigatus
From the text: as §1

A fumigatus 1008 [2] = assay: as above; type: cell-based, Aspergillus fumigatus
From the text: as §1

Fusarium (Ceylon) = assay: as above; type: cell-based
From the text: as §1

Fusarium 29600 = assay: as above; type: cell-based; conditions: Fusarium 29600
From the text: as §1

Fusarium 18270 = assay: as above; type: cell-based; conditions: Fusarium 18270
From the text: as §1

Compound	Minimum Inhibitory Concentration (MIC) (Penicilliuim 2306) [µg/mL]	Minimum Fungicidal Concentration (MFC) (Alternaria 1051) [µg/mL]	Minimum Fungicidal Concentration (MFC) (A niger E5 - 1047) [µg/mL]	Minimum Fungicidal Concentration (MFC) (Penicillium 2548) [µg/mL]	Minimum Fungicidal Concentration (MFC) (C krusei 6258) [µg/mL]	Minimum Fungicidal Concentration (MFC) (C parapsilosis 22019) [µg/mL]	Minimum Fungicidal Concentration (MFC) (A niger P1 - 1046) [µg/mL]	Minimum Fungicidal Concentration (MFC) (A flavus E3 - 1044) [µg/mL]	Minimum Fungicidal Concentration (MFC) (A flavus P2 - 1045) [µg/mL]	Minimum Fungicidal Concentration (MFC) (Penicillium 1641) [µg/mL]	Minimum Fungicidal Concentration (MFC) (Penicillium 2306) [µg/mL]	Minimum Fungicidal Concentration (MFC) (Mucor (Ceylon)) [µg/mL]	Minimum Fungicidal Concentration (MFC) (Rhizopus 1052) [µg/mL]	Minimum Fungicidal Concentration (MFC) (Rhizopus (Ceylon)) [µg/mL]	Minimum Fungicidal Concentration (MFC) (Penicillium 31620) [µg/mL]	Minimum Fungicidal Concentration (MFC) (Penicillium 191) [µg/mL]	Minimum Fungicidal Concentration (MFC) (Penicillium I - 1049) [µg/mL]	Minimum Fungicidal Concentration (MFC) (Penicillium H - 1048) [µg/mL]	Minimum Inhibitory Concentration (MIC) (A fumigatus J - 1032) [µg/mL]	Minimum Inhibitory Concentration (MIC) (A fumigatus I - 1011) [µg/mL]	further results
C[C@@H]1[C@H](O)[C@@H](C)/C=C/C=C/C=C/C=C/C=C/C=C/C=C/[C@H](O[C@@H]2O[C@H](C)[C@@H](O)[C@H](N)[C@@H]2O)C[C@@H]2O[C@](O)(C[C@@H](O)C[C@@H](O)[C@H](O)CC[C@@H](O)C[C@@H](O)CC(=O)O[C@H]1C)C[C@H](O)[C@H]2C(=O)O [Amphotericin-B, Amphotericin B]	0.25	>128	0.25	4	1	32	0.25	0.5	1	16	0.5	1	8	64	0.25	2	4	2	0.25	0.25	Minimum Fungicidal Concentration (MFC) (A flavus E4 - 1042): 0.125 µg/mL; Minimum Fungicidal Concentration (MFC) (A flavus P3 - 1041): 0.5 µg/mL; Minimum Inhibitory Concentration (MIC) (A fumigatus L - 1034): 0.25 µg/mL; Minimum Inhibitory Concentration (MIC) (A fumigatus PGI - 1023): 0.125 µg/mL; Minimum Inhibitory Concentration (MIC) (A fumigatus 1008 [1]): 0.25 µg/mL; Minimum Inhibitory Concentration (MIC) (A fumigatus II - 1012): 0.125 µg/mL; Minimum Inhibitory Concentration (MIC) (A fumigatus K - 1033): 0.125 µg/mL; Minimum Fungicidal Concentration (MFC) (A fumigatus SI-1 - 1019): 2 µg/mL; Minimum Fungicidal Concentration (MFC) (A fumigatus 1008 [2]): 1 µg/mL
C[C@@H](n1ncn(-c2ccc(N3CCN(c4ccc(Cl)cc4)CC3)cc2)c1=S)[C@](O)(Cn1cncn1)c1ccc(F)cc1F [Compound No. 1, 2-{[1R,2R]-2-(2,4-Difluorophenyl)-2-hydroxy-1-methyl-3-(1H-1,2,4-triazole-1-yl)propyl}-4-{4-[4-(4-chlorophenyl)-1-piperizinyl]phenyl}-3-(2H,4H)-1,2,4-thiotriazolone]	0.016	0.06	0.06	0.125	0.016	0.016	0.06	0.03	0.03	0.25	0.06	1	0.03	0.5	0.125	0.125	1	4	0.008	0.016	Minimum Fungicidal Concentration (MFC) (Fusarium (Ceylon)): 32 µg/mL; Minimum Fungicidal Concentration (MFC) (A flavus E4 - 1042): 0.03 µg/mL; Minimum Fungicidal Concentration (MFC) (Fusarium 29600): >128 µg/mL; Minimum Fungicidal Concentration (MFC) (A flavus P3 - 1041): 0.06 µg/mL; Minimum Fungicidal Concentration (MFC) (Fusarium 18270): >128 µg/mL; Minimum Inhibitory Concentration (MIC) (A fumigatus L - 1034): 0.008 µg/mL; Minimum Inhibitory Concentration (MIC) (A fumigatus PGI - 1023): 0.016 µg/mL; Minimum Inhibitory Concentration (MIC) (A fumigatus 1008 [1]): 0.016 µg/mL; Minimum Inhibitory Concentration (MIC) (A fumigatus II - 1012): 0.008 µg/mL; Minimum Inhibitory Concentration (MIC) (A fumigatus K - 1033): 0.008 µg/mL; Minimum Fungicidal Concentration (MFC) (A fumigatus SI-1 - 1019): 0.03 µg/mL; Minimum Fungicidal Concentration (MFC) (A fumigatus 1008 [2]): 0.03 µg/mL
C[C@@H](n1ncn(-c2ccc(OCC(F)(F)C(F)F)cc2)c1=O)[C@](O)(Cn1cncn1)c1ccc(F)cc1F [TAK 187, 2-[(1R,2R)-2-(2,4-difluorophenyl)-2-hydroxy-1-methyl-3-(1H-1,2,4-triazol-1-yl)propyl]-4-(2′,2′,3′,3′-tetraflouropropoxyphenyl)-3(2H,4H)-1,2,4-triazolone]	8	16	2	16	64	0.03	0.5	8	32	32	16	>128	32	>128	16	16	128	>128	4	4	Minimum Fungicidal Concentration (MFC) (Fusarium 18270): 32 µg/mL; Minimum Inhibitory Concentration (MIC) (A fumigatus L - 1034): 4 µg/mL; Minimum Inhibitory Concentration (MIC) (A fumigatus PGI - 1023): 8 µg/mL; Minimum Inhibitory Concentration (MIC) (A fumigatus 1008 [1]): 4 µg/mL; Minimum Inhibitory Concentration (MIC) (A fumigatus II - 1012): 8 µg/mL; Minimum Inhibitory Concentration (MIC) (A fumigatus K - 1033): 8 µg/mL; Minimum Fungicidal Concentration (MFC) (A fumigatus SI-1 - 1019): 32 µg/mL; Minimum Fungicidal Concentration (MFC) (A fumigatus 1008 [2]): 8 µg/mL
